In patent US6740651B2, “Aminoquinazolines which inhibit signal transduction mediated by tyrosine kinases” (Boehringer Ingelheim Pharma KG, priority 2000, dated 2004):

Target: T1, human EGF-R (Homo sapiens, UniProt P00533)
T1 construct: expressed in transfected cells; host or cells: F/L-HERc cells (murine IL-3-dependent FDC-P1 line transduced with LXSN retroviral vector carrying human EGF-R cDNA; packaging line GP+E86)
Experiment: Inhibition of the EGF-dependent proliferation of F/L-HERc cells (Cell Titer 96 proliferation assay)
Assay type: cell-based
Details: F/L-HERc cells (murine IL-3-dependent line expressing human EGF-R), stimulated with EGF 20 ng/ml, 48 hours at 37° C.
Excerpt: A cell line of murine origin dependent on interleukin-3-(IL-3) which was genetically modified to express functional human EGF-R was used here. The proliferation of these cells known as F/L-HERc can therefore be stimulated either by murine IL-3 or by EGF (cf. von Rüden, T. et al. in EMBO J. 7, 2749-2756 (1988) and Pierce, J. H. et al. in Science 239, 628-631 (1988)).
The starting material used for the F/L-HERc cells was the cell line FDC-P1, the production of which has been described by Dexter, T. M. et al. in J. Exp. Med. 152, 1036-1047 (1980). Alternatively, however, other growth-factor-dependent cells may also be used (cf. for example Pierce, J. H. et al. in Science 239, 628-631 (1988), Shibuya, H. et al. in Cell 70, 57-67 (1992) and Alexander, W. S. et al. in EMBO J. 10, 3683-3691 (1991)). […]
In order to determine the inhibitory activity of the compounds according to the invention the relative cell number was measured in O.D. units using the Cell Titer 96™ Aqueous Non-Radioactive Cell Proliferation Assay (Promega). […]

T1 sequence (P00533 25-1210): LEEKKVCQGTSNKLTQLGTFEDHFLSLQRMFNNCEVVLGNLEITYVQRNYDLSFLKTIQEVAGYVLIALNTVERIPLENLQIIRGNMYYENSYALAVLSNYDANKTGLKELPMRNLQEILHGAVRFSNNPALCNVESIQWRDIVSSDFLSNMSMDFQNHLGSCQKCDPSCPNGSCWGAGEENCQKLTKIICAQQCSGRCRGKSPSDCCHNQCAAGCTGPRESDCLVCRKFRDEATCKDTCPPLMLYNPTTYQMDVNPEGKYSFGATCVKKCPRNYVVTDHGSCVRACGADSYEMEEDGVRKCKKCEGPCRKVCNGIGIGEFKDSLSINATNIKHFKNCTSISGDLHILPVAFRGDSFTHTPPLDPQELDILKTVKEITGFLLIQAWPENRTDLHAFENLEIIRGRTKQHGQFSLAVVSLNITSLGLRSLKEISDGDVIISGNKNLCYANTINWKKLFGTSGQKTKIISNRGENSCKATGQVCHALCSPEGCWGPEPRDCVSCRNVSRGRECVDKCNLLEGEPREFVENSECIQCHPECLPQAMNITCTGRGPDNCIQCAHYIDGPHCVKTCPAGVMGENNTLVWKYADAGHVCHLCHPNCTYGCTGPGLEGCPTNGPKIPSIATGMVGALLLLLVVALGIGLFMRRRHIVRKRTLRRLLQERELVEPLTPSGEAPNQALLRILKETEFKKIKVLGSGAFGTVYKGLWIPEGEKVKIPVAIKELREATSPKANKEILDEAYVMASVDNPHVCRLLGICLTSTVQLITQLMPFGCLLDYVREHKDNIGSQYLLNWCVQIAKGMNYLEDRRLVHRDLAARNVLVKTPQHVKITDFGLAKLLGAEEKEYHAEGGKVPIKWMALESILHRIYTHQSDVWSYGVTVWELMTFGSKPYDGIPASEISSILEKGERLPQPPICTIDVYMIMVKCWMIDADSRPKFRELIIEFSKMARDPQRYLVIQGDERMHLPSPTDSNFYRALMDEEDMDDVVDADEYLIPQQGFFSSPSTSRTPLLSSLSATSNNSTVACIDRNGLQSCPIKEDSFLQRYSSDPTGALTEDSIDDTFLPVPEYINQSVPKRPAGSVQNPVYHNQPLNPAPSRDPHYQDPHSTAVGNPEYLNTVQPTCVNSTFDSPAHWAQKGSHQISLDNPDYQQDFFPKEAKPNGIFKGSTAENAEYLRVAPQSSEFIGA

For `COC[C@H]1CN(CC=CC(=O)Nc2cc3c(Nc4ccc(F)c(Cl)c4)ncnc3cc2OCC2CC2)CC(=O)O1` [Example 1, 4-[(3-chloro-4-fluoro-phenyl)amino]-6-{[4-((R)-2-methoxymethyl-6-oxo-morpholin-4-yl)-1-oxo-2-buten-1-yl]amino}-7-cyclopropylmethoxy-quinazoline], which IC50 is on record?
Its IC50 is 2 nM.
